Assay results from patent US20020137929A1, “1 - (3-heterocyclylphenyl) isothiourea, -isourea, -guanidine and -amidine herbicidal agents” (Intellectual Property Department, BASF Aktiengesellschaft, priority 1998, published 2002).

Legend:
GALAP (Galium) = assay: Postemergence herbicidal evaluation; format: in vivo, Galium aparine; conditions: postemergence
In short: (§1)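 Visual 0–9 rating versus control (stand, vigor, malformation, size, chlorosis, overall appearance), taken four to five weeks post-spray. Two-week-old seedlings received roughly 0.0156–0.500 kg/ha active in acetone/water (50/50) with 0.5% TWEEN 20 via nozzle at 40 psi.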

CASOB (Sicklepod) [1] = assay: Preemergence herbicidal evaluation; format: in vivo, Cassia obtusifolia; conditions: rated 4-5 weeks after treatment
In short: (§2)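 Rating at 4–5 wk post-spray on a 0–9 visual scale vs control. Application: aqueous acetone, ~0.0156–0.500 kg/ha, to soil surface after seeding, preemergence.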

ABUTH (Velvetleaf) = assay: Preemergence herbicidal evaluation; format: in vivo, Abutilon theophrasti; conditions: rated 4-5 weeks after treatment
In short: as §2

AMBEL (Ragweed, Common) = assay: Postemergence herbicidal evaluation; format: in vivo, Ambrosia artemisifolia; conditions: postemergence
In short: as §1

MOOVA (Monochoria) = assay: Preemergence weed control under flooded paddy conditions; format: in vivo, Monochoria vaginalis; conditions: rated 3-4 weeks after treatment
In short: (§3)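 Ratings on a 0-9 visual scale cover stand, vigor, malformation, size, chlorosis and overall appearance relative to a control, taken three to four weeks post-treatment. Application was into flood water over freshly sown silt loam at roughly 0.0313 to 0.500 kg/ha.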

[2] = test system: SAGPY (Arrowhead (Pygmaea)); assay: as above; format: in vivo, Sagittaria pygmaea; conditions: rated 3-4 weeks after treatment
In short: as §3

[3] = test system: TRZAWR (Wheat, Winter, cv Riband); assay: Preemergence herbicidal evaluation; format: in vivo, Triticum aestivum; conditions: rated 4-5 weeks after treatment
In short: as §2

ZEAMX (Corn, Field) = assay: Preemergence herbicidal evaluation; format: in vivo, Zea mays; conditions: rated 4-5 weeks after treatment
In short: as §2

CASOB (Sicklepod) [4] = assay: Postemergence herbicidal evaluation; format: in vivo, Cassia obtusifolia; conditions: postemergence
In short: as §1

[5] = test system: GLXMAW (Soybean, Williams); assay: Preemergence herbicidal evaluation; format: in vivo, Glycine max, (L.) Merr. cv Williams; conditions: rated 4-5 weeks after treatment
In short: as §2

ECHCG (Barnyardgrass) = assay: Preemergence herbicidal evaluation; format: in vivo, Echinochloa crus-galli; conditions: rated 4-5 weeks after treatment
In short: as §2

[6] = test system: IPOHE (Morningglory, Ivyleaf); assay: Preemergence herbicidal evaluation; format: in vivo, Ipomoea hederacea; conditions: rated 4-5 weeks after treatment
In short: as §2

[7] = test system: IPOHE (Morningglory, Ivyleaf); assay: Postemergence herbicidal evaluation; format: in vivo, Ipomoea hederacea; conditions: postemergence
In short: as §1

[8] = rate 0.1250 kg/ha, rating scale 0-9
[9] = rate 0.2500 kg/ha, rating scale 0-9

Q: Which “Herbicidal rating GALAP” value (GALAP (Galium); rate 0.0156 kg/ha) does the source give for `Cc1ccc(CN2C(=O)CSC2=Nc2cc(-n3c(=O)cc(C(F)(F)F)n(C)c3=O)c(F)cc2Cl)cc1Cl` [Compound 149, 3-{4-Chloro-5-{[3-(3-chloro-4-methylbenzyl)-4-oxo-2-thiazolidinylidene]amino}-2-fluorophenyl}-1-methyl-6-(trifluoromethyl)-2,4(1H,3H)-pyrimidinedione] here?
A: 0.0

Q: What about the “Herbicidal rating GALAP” value (GALAP (Galium); rate 0.0313 kg/ha) of the same compound?
A: 0.0

Q: What about the “Herbicidal rating GALAP” value (GALAP (Galium); rate 0.0625 kg/ha) of the same compound?
A: 2.0

Q: What about the “Preemergence herbicidal rating CASOB” value (CASOB (Sicklepod) [1]; [8]) of the same compound?
A: 0.0

Q: And the “Preemergence herbicidal rating CASOB” value (CASOB (Sicklepod) [1]; [9])?
A: 0.0

Q: What about the “Preemergence herbicidal rating ABUTH” value (ABUTH (Velvetleaf); [8]) of the same compound?
A: 3.0

Q: And the “Preemergence herbicidal rating ABUTH” value (ABUTH (Velvetleaf); [9])?
A: 7.0

Q: And the “Herbicidal rating AMBEL” value (AMBEL (Ragweed, Common); rate 0.0156 kg/ha)?
A: 4.0

Q: What about the “Herbicidal rating AMBEL” value (AMBEL (Ragweed, Common); rate 0.0313 kg/ha) of the same compound?
A: 9.0

Q: And the “Herbicidal rating AMBEL” value (AMBEL (Ragweed, Common); rate 0.0625 kg/ha)?
A: 9.0

Q: What about the “herbicidal effect rating, MOOVA” value (MOOVA (Monochoria); 0.0313 kg/ha) of the same compound?
A: 5.0

Q: What about the “herbicidal effect rating, MOOVA” value (MOOVA (Monochoria); 0.0625 kg/ha) of the same compound?
A: 7.0

Q: And the “herbicidal effect rating, MOOVA” value (MOOVA (Monochoria); 0.1250 kg/ha)?
A: 7.0

Q: What about the “herbicidal effect rating, MOOVA” value (MOOVA (Monochoria); 0.2500 kg/ha) of the same compound?
A: 7.0

Q: And the “herbicidal effect rating, SAGPY” value ([2]; 0.0313 kg/ha)?
A: 0.0

Q: And the “herbicidal effect rating, SAGPY” value ([2]; 0.0625 kg/ha)?
A: 2.0

Q: What about the “herbicidal effect rating, SAGPY” value ([2]; 0.1250 kg/ha) of the same compound?
A: 3.0

Q: And the “herbicidal effect rating, SAGPY” value ([2]; 0.2500 kg/ha)?
A: 3.0

Q: What about the “Preemergence herbicidal rating TRZAWR” value [3, 8] of the same compound?
A: 0.0

Q: And the “Preemergence herbicidal rating TRZAWR” value [3, 9]?
A: 2.0

Q: And the “Preemergence herbicidal rating ZEAMX” value (ZEAMX (Corn, Field); [8])?
A: 0.0

Q: What about the “Preemergence herbicidal rating ZEAMX” value (ZEAMX (Corn, Field); [9]) of the same compound?
A: 2.0

Q: And the “Herbicidal rating CASOB” value (CASOB (Sicklepod) [4]; rate 0.0156 kg/ha)?
A: 0.0

Q: What about the “Herbicidal rating CASOB” value (CASOB (Sicklepod) [4]; rate 0.0313 kg/ha) of the same compound?
A: 0.0

Q: What about the “Herbicidal rating CASOB” value (CASOB (Sicklepod) [4]; rate 0.0625 kg/ha) of the same compound?
A: 0.0

Q: And the “Preemergence herbicidal rating GLXMAW” value [5, 8]?
A: 3.0

Q: And the “Preemergence herbicidal rating GLXMAW” value [5, 9]?
A: 7.0

Q: What about the “Preemergence herbicidal rating ECHCG” value (ECHCG (Barnyardgrass); [8]) of the same compound?
A: 0.0

Q: What about the “Preemergence herbicidal rating ECHCG” value (ECHCG (Barnyardgrass); [9]) of the same compound?
A: 0.0

Q: What about the “Preemergence herbicidal rating IPOHE” value [6, 8] of the same compound?
A: 0.0

Q: And the “Preemergence herbicidal rating IPOHE” value [6, 9]?
A: 2.0

Q: What about the “Herbicidal rating IPOHE” value ([7]; rate 0.0156 kg/ha) of the same compound?
A: 9.0

Q: What about the “Herbicidal rating IPOHE” value ([7]; rate 0.0313 kg/ha) of the same compound?
A: 9.0

Q: And the “Herbicidal rating IPOHE” value ([7]; rate 0.0625 kg/ha)?
A: 9.0

Q: Which results are given for `CC(C)N1C(=O)CSC1=Nc1cc(-n2c(=O)cc(C(F)(F)F)n(C)c2=O)c(F)cc1Cl` [Compound 164, 3-{4-Chloro-2-fluoro-5-[(3-isopropyl-4-oxo-2-thiazolidinylidene)amino]phenyl}-1-methyl-6-(trifluoromethyl)-2,4(1H,3H)-pyrimidinedione]?
A: Herbicidal rating GALAP (GALAP (Galium); rate 0.0156 kg/ha): 3.0; Herbicidal rating GALAP (GALAP (Galium); rate 0.0313 kg/ha): 4.0; Herbicidal rating GALAP (GALAP (Galium); rate 0.0625 kg/ha): 7.0; Herbicidal rating GALAP (GALAP (Galium); rate 0.1250 kg/ha): 6.0; Preemergence herbicidal rating CASOB (CASOB (Sicklepod) [1]; 0.0156 kg/ha): 1.0; Preemergence herbicidal rating CASOB (CASOB (Sicklepod) [1]; 0.0313 kg/ha): 0.0; Preemergence herbicidal rating CASOB (CASOB (Sicklepod) [1]; 0.0625 kg/ha): 7.0; Preemergence herbicidal rating CASOB (CASOB (Sicklepod) [1]; 0.1250 kg/ha): 7.0; Preemergence herbicidal rating CASOB (CASOB (Sicklepod) [1]; 0.2500 kg/ha): 9.0; Preemergence herbicidal rating CASOB (CASOB (Sicklepod) [1]; 0.5000 kg/ha): 5.0; Preemergence herbicidal rating ABUTH (ABUTH (Velvetleaf); 0.0156 kg/ha): 6.0; Preemergence herbicidal rating ABUTH (ABUTH (Velvetleaf); 0.0313 kg/ha): 9.0; Preemergence herbicidal rating ABUTH (ABUTH (Velvetleaf); 0.0625 kg/ha): 9.0; Preemergence herbicidal rating ABUTH (ABUTH (Velvetleaf); 0.1250 kg/ha): 9.0; Preemergence herbicidal rating ABUTH (ABUTH (Velvetleaf); 0.2500 kg/ha): 9.0; Preemergence herbicidal rating ABUTH (ABUTH (Velvetleaf); 0.5000 kg/ha): 9.0; Herbicidal rating AMBEL (AMBEL (Ragweed, Common); rate 0.0156 kg/ha): 7.0; Herbicidal rating AMBEL (AMBEL (Ragweed, Common); rate 0.0313 kg/ha): 9.0; Herbicidal rating AMBEL (AMBEL (Ragweed, Common); rate 0.0625 kg/ha): 9.0; Herbicidal rating AMBEL (AMBEL (Ragweed, Common); rate 0.1250 kg/ha): 9.0; herbicidal effect rating, MOOVA (MOOVA (Monochoria); 0.0313 kg/ha): 8.0; herbicidal effect rating, MOOVA (MOOVA (Monochoria); 0.0625 kg/ha): 9.0; herbicidal effect rating, MOOVA (MOOVA (Monochoria); 0.1250 kg/ha): 9.0; herbicidal effect rating, MOOVA (MOOVA (Monochoria); 0.2500 kg/ha): 9.0; herbicidal effect rating, SAGPY ([2]; 0.0313 kg/ha): 4.0; herbicidal effect rating, SAGPY ([2]; 0.0625 kg/ha): 4.0; herbicidal effect rating, SAGPY ([2]; 0.1250 kg/ha): 5.0; herbicidal effect rating, SAGPY ([2]; 0.2500 kg/ha): 6.0; Preemergence herbicidal rating TRZAWR ([3]; 0.0156 kg/ha): 1.0; Preemergence herbicidal rating TRZAWR ([3]; 0.0313 kg/ha): 1.0; Preemergence herbicidal rating TRZAWR ([3]; 0.0625 kg/ha): 4.0; Preemergence herbicidal rating TRZAWR ([3]; 0.1250 kg/ha): 6.0; Preemergence herbicidal rating TRZAWR ([3]; 0.2500 kg/ha): 7.0; Preemergence herbicidal rating TRZAWR ([3]; 0.5000 kg/ha): 9.0; Preemergence herbicidal rating ZEAMX (ZEAMX (Corn, Field); 0.0156 kg/ha): 2.0; Preemergence herbicidal rating ZEAMX (ZEAMX (Corn, Field); 0.0313 kg/ha): 3.0; Preemergence herbicidal rating ZEAMX (ZEAMX (Corn, Field); 0.0625 kg/ha): 6.0; Preemergence herbicidal rating ZEAMX (ZEAMX (Corn, Field); 0.1250 kg/ha): 7.0; Preemergence herbicidal rating ZEAMX (ZEAMX (Corn, Field); 0.2500 kg/ha): 8.0; Preemergence herbicidal rating ZEAMX (ZEAMX (Corn, Field); 0.5000 kg/ha): 9.0; Herbicidal rating CASOB (CASOB (Sicklepod) [4]; rate 0.0156 kg/ha): 2.0; Herbicidal rating CASOB (CASOB (Sicklepod) [4]; rate 0.0313 kg/ha): 2.0; Herbicidal rating CASOB (CASOB (Sicklepod) [4]; rate 0.0625 kg/ha): 5.0; Herbicidal rating CASOB (CASOB (Sicklepod) [4]; rate 0.1250 kg/ha): 6.0; Preemergence herbicidal rating GLXMAW ([5]; 0.0156 kg/ha): 1.0; Preemergence herbicidal rating GLXMAW ([5]; 0.0313 kg/ha): 2.0; Preemergence herbicidal rating GLXMAW ([5]; 0.0625 kg/ha): 5.0; Preemergence herbicidal rating GLXMAW ([5]; 0.1250 kg/ha): 7.0; Preemergence herbicidal rating GLXMAW ([5]; 0.2500 kg/ha): 7.0; Preemergence herbicidal rating GLXMAW ([5]; 0.5000 kg/ha): 7.0; Preemergence herbicidal rating ECHCG (ECHCG (Barnyardgrass); 0.0156 kg/ha): 0.0; Preemergence herbicidal rating ECHCG (ECHCG (Barnyardgrass); 0.0313 kg/ha): 7.0; Preemergence herbicidal rating ECHCG (ECHCG (Barnyardgrass); 0.0625 kg/ha): 7.0; Preemergence herbicidal rating ECHCG (ECHCG (Barnyardgrass); 0.1250 kg/ha): 9.0; Preemergence herbicidal rating ECHCG (ECHCG (Barnyardgrass); 0.2500 kg/ha): 9.0; Preemergence herbicidal rating ECHCG (ECHCG (Barnyardgrass); 0.5000 kg/ha): 9.0; Preemergence herbicidal rating IPOHE ([6]; 0.0156 kg/ha): 4.0; Preemergence herbicidal rating IPOHE ([6]; 0.0313 kg/ha): 9.0; Preemergence herbicidal rating IPOHE ([6]; 0.0625 kg/ha): 9.0; Preemergence herbicidal rating IPOHE ([6]; 0.1250 kg/ha): 9.0; Preemergence herbicidal rating IPOHE ([6]; 0.2500 kg/ha): 9.0; Preemergence herbicidal rating IPOHE ([6]; 0.5000 kg/ha): 9.0; Herbicidal rating IPOHE ([7]; rate 0.0156 kg/ha): 9.0; Herbicidal rating IPOHE ([7]; rate 0.0313 kg/ha): 9.0; Herbicidal rating IPOHE ([7]; rate 0.0625 kg/ha): 9.0; Herbicidal rating IPOHE ([7]; rate 0.1250 kg/ha): 9.0
